Results reported in article PMC10002956, “Tumour suppressor PTEN activity is differentially inducible by myo‐inositol phosphates” (Journal of Cellular and Molecular Medicine, 2023).

How the values were obtained:
[1] = biological target: T1, PTEN (phosphatase and tensin homologue deleted on Chromosome 10) (Homo sapiens, UniProt P60484); assay: malachite green phosphate release from PIP3; format: biochemical; details: PIP3 200 μM, PTEN 50 μM, IHP 2.5-40 mM; Tris-HCl pH 7.5, 10 mM DTT, 37 °C
T1 construct: commercial recombinant PTEN; immobilised on CM5 chip for SPR

[2] = biological target: T1, PTEN (phosphatase and tensin homologue deleted on Chromosome 10); assay: SPR, PTEN immobilised on CM5 chip, Biacore T200, […] Langmuir with mass transport; format: binding; details: 25 °C, HBS; PIP3 25-400 μM; acyl chains of PIP3 not told

T1 sequence (P60484 2-403): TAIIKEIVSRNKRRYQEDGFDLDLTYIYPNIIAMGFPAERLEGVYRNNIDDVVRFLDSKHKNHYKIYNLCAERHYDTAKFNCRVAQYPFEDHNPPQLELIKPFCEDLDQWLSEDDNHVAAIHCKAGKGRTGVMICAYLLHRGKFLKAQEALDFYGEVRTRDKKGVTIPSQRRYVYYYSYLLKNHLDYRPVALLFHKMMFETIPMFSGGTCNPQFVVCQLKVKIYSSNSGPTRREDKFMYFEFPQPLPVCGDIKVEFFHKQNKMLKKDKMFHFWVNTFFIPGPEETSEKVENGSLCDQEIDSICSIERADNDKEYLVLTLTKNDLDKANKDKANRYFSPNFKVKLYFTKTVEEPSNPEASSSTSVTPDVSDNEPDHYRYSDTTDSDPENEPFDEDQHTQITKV

Compound | malachite green phosphate release from PIP3 [1] | K D [2]
O=P(O)(O)O[C@H]1[C@H](OP(=O)(O)O)[C@@H](OP(=O)(O)O)[C@H](OP(=O)(O)O)[C@@H](OP(=O)(O)O)[C@H]1OP(=O)(O)O [IHP] | IHP inhibits hydrolysis in a concentration‐dependent manner | 
PIP3 |  | ~ 2.5 micromoles
